Measurements: patent US20230167073A1 (Teijin Pharma Limited, priority 2020, published 2023)

target: T1, Human TRPC6 (Homo sapiens, UniProt Q9Y210); assay: Evaluation of TRPC6 channel inhibitory activity (1), FLIPR Calcium 5 Assay Kit, OAG stimulation (Compound Nos. 1-1293); format: cell-based; settings: Human TRPC6 stably-expressing cells, OAG 30 μM, FLIPR Calcium 5 Assay Kit; read-out: Inhibitory activity (pIC50 class) (converted)
T1 construct: expressed in transfected cells
T1 sequence (Q9Y210 1-931): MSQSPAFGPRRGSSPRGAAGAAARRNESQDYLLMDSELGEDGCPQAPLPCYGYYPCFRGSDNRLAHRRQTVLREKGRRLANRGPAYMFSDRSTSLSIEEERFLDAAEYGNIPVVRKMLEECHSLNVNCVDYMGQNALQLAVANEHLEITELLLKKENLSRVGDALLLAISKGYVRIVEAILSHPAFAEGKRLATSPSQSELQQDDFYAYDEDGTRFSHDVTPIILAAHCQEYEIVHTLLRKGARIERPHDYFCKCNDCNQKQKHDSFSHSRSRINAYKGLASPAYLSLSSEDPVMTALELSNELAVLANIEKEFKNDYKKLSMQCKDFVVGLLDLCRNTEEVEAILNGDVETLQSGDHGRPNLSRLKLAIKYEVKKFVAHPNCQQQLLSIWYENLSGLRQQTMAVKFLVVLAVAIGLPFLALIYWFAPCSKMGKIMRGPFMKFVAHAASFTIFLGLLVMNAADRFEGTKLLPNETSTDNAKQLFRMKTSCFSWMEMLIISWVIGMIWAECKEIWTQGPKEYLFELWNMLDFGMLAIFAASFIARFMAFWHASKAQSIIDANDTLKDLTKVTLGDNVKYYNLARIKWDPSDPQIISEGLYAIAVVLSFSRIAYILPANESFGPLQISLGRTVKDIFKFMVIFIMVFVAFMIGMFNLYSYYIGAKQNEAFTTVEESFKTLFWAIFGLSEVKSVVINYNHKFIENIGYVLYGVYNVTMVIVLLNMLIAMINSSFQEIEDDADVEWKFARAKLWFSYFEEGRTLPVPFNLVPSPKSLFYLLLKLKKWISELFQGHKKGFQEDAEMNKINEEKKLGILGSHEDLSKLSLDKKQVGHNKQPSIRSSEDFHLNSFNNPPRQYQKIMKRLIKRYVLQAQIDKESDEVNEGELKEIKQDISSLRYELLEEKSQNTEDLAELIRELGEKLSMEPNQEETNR
Outline: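 Calcium influx read by FLIPR fluorescence in cells stably expressing human TRPC6, dye-loaded 30 min. Compounds preincubated 20 min, then OAG stimulation at 30 μM final. Inhibition fitted by four-parameter logistic regression to give pIC50, reported as +/++/+++ categories.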

IC50 [µM]	SMILES
< 0.01	Cn1nc(-c2ccccn2)cc1Oc1nc(C#N)ccc1-c1ccc(CCN)cn1 [compound 1280, 5-[5-(2-aminoethyl)pyridin-2-yl]-6-(2-methyl-5-pyridin-2-ylpyrazol-3-yl)oxypyridine-2-carbonitrile]
0.01 to 1	Cn1nc(C2CC2)cc1Oc1nc(C#N)ccc1-c1ncc(CCN)cn1 [compound 1281, 5-[5-(2-aminoethyl)pyrimidin-2-yl]-6-(5-cyclopropyl-2-methylpyrazol-3-yl)oxypyridine-2-carbonitrile]
0.01 to 1	Cc1cc(Oc2nc(C#N)ccc2-c2ccc(CCN)cn2)cc(N2CCCC2)n1 [compound 1282, 5-[5-(2-aminoethyl)pyridin-2-yl]-6-(2-methyl-6-pyrrolidin-1-ylpyridin-4-yl)oxypyridine-2-carbonitrile]
> 1	Cn1nc(-c2ccccn2)cc1Oc1nc(C#N)ccc1-c1ncc(CN)cn1 [compound 1283, 5-[5-(aminomethyl)pyrimidin-2-yl]-6-(2-methyl-5-pyridin-2-ylpyrazol-3-yl)oxypyridine-2-carbonitrile]
0.01 to 1	Cc1cc(Oc2nc(C#N)ccc2-c2ccc(CCN)cn2)cc(N2CCOCC2)n1 [compound 1284, 5-[5-(2-aminoethyl)pyridin-2-yl]-6-(2-methyl-6-morpholin-4-ylpyridin-4-yl)oxypyridine-2-carbonitrile]
> 1	Cc1cc(Oc2nc(C#N)ccc2-c2ncc(CN)cn2)cc(N2CCOCC2)n1 [compound 1285, 5-[5-(aminomethyl)pyrimidin-2-yl]-6-(2-methyl-6-morpholin-4-ylpyridin-4-yl)oxypyridine-2-carbonitrile]
> 1	Cc1cc(Oc2nc(C#N)ccc2-c2ncc(CN)cn2)cc(-c2ccccn2)n1 [compound 1286, 5-[5-(aminomethyl)pyrimidin-2-yl]-6-(2-methyl-6-pyridin-2-ylpyridin-4-yl)oxypyridine-2-carbonitrile]
> 1	Cn1nc(-c2ccccn2)cc1Oc1cc(C#N)cnc1-c1ncc(CN)cn1 [compound 1287, 6-[5-(aminomethyl)pyrimidin-2-yl]-5-(2-methyl-5-pyridin-2-ylpyrazol-3-yl)oxypyridine-3-carbonitrile]
> 1	Cn1nc(-c2ccccn2)cc1Oc1cc(C#N)cnc1-c1ccc(CN)cc1 [compound 1288, 6-[4-(aminomethyl)phenyl]-5-(2-methyl-5-pyridin-2-ylpyrazol-3-yl)oxypyridine-3-carbonitrile]
0.01 to 1	Cn1nc(-c2ccccc2)cc1Oc1cc(Cl)ncc1-c1ccc(CCN)cn1 [compound 1290, 2-[6-[6-chloro-4-(2-methyl-5-phenylpyrazol-3-yl)oxypyridin-3-yl]pyridin-3-yl]ethanamine]
> 1	Cn1nc(-c2ccccc2)cc1Oc1cc(Cl)ncc1-c1ccc(CN)cn1 [compound 1291, [6-[6-chloro-4-(2-methyl-5-phenylpyrazol-3-yl)oxypyridin-3-yl]pyridin-3-yl]methanamine]
0.01 to 1	Cn1nc(-c2ccccc2)cc1Oc1nc(Cl)ccc1-c1ccc(CCN)cn1 [compound 1292, 2-[6-[6-chloro-2-(2-methyl-5-phenylpyrazol-3-yl)oxypyridin-3-yl]pyridin-3-yl]ethanamine]
0.01 to 1	Cn1nc(-c2ccccc2)cc1Oc1nc(Cl)ccc1-c1ccc(CN)cn1 [compound 1293, [6-[6-chloro-2-(2-methyl-5-phenylpyrazol-3-yl)oxypyridin-3-yl]pyridin-3-yl]methanamine]

target: T1, Human TRPC6; assay: Evaluation of TRPC6 channel inhibitory activity (2), HEK293 cells with stably introduced human TRPC6, OAG stimulation, FLIPR tetra (Compound Nos. 1293 to 1405); format: cell-based; settings: HEK293 cells with stably introduced human TRPC6, OAG 50 μM/0.5% DMSO, read-out: Inhibitory activity (pIC50 class) (converted)
Procedure: Evaluation of TRPC6 Channel Inhibitory Activity (2) (Compound Nos. 1293 to 1405)
The activity of the TRPC6 inhibitor was measured by stimulating HEK293 cells, in which human TRPC6 was stably introduced, with OAG (1-Oleoyl-2-acetyl-sn-glycerol, Miliipore Sigma, 06754), using the FLIPR tetra system. The cells were proliferated in a humid environment at 37° C. 5% CO2 using a growth medium (DMEM (Dulbecco's Modified Eagle's Medium) high glucose containing 10% fetal bovine serum, 1×PSGlu (penicillin-streptomycin glutamine), 1×NEAA (Non-essential amino acid), sodium pyruvate and 200 μg/mL hyglomycin. For cell subculture, the cells were proliferated to 70-90% confluence, and gently washed twice with PBS (phosphate-buffered saline) free of calcium and magnesium after removing the medium. Then, the cells were incubated at 37° C. for 5 minutes after adding trypsin (3 mL), peeled off by tapping the flask at the base of the hand, 7 mL of growth medium was added to inactivate trypsin, and then the cells were resuspended. Usually, the cells were separated every 2-3 days to become a cell density of ⅕. The day before evaluation, the cells were seeded in a poly-D-lysine (PDL) coated 384-well plate using a multi-channel pipette or multidrop at a cell density of 1.0-1.5×10^4 cells/25 μL/well. After culturing overnight in a PDL-coated 384 Blackwell plate, a fluorescent dye buffer was added first to the cells and the cells were cultured at room temperature for 90-120 minutes. For preparing 10 mL of fluorescent dye buffer, 9 mL of assay buffer, 1 mL of 10×PBX signal enhancer, and 10 μL of calcium indicator were mixed. Cells treated with the compounds of each level 25 minutes before the stimulation with OAG of TRPC6 agonist were incubated. OAG solution was prepared by adding OAG to assay buffer (Ca ringer solution base: 10 mM HEPES (4-(2-hydroxyethyl)-1-piperazine-ethanesulfonic acid), 4 mM MgCl2, 120 mM NaCl, 5 mM KCl, pH=7.2 (25° C.)+0.1% BSA+2 mM CaCl2)) to give an OAG concentration of 0.2 mM/2% DMSO. The final concentration of OAG added to the cells is 50 μM/0.5% DMSO. A volume of 12.5 μL of OAG solution was added, and activation of TRPC6 channel was measured using the FLIPR tetra system assaying the change in intracellular calcium level as an index. The 180 seconds imaging frame was defined as the background signal, and the subtraction of the background signal from the raw data was used as the fluorescence peak signal. Each fluorescence peak signal is standardized using an OAG-induced signal and buffer-induced signal as 100% and 0%, respectively. The inhibition rate obtained by plotting the peak signal after the addition of the compounds of each level was analyzed by a four-parameter logistic regression to quantify the inhibition rate in the logarithm of the inverse of the effective concentration which gives a 50% inhibition rate (pIC50). The intensity was expressed by the above-mentioned symbols (+, ++, +++).

IC50 [µM]	SMILES
> 1	Cn1nc(C2CC2)cc1Oc1cc(F)ccc1-c1ncc(C(F)CN)cn1 (stereo in doubt) [compound 1381, (2S)-2-[2-[2-(5-cyclopropyl-2-methylpyrazol-3-yl)oxy-4-fluorophenyl]pyrimidin-5-yl]-2-fluoroethanamine]
> 1	Cn1nc(C2CC2)cc1Oc1cc(C#N)ccc1-c1ccc(C(F)(F)CN)nc1 [compound 1294, 4-[6-(2-amino-1,1-difluoroethyl)pyridin-3-yl]-3-(5-cyclopropyl-2-methylpyrazol-3-yl)oxybenzonitrile]
< 0.01	Cn1nc(-c2ccccn2)cc1Oc1cc(C#N)ccc1-c1ncc([C@@H](F)CN)cn1 [compound 1295, 4-[5-[(1R)-2-amino-1-fluoroethyl]pyrimidin-2-yl]-3-(2-methyl-5-pyridin-2-ylpyrazol-3-yl)oxybenzonitrile]
< 0.01	Cn1nc(-c2ccccn2)cc1Oc1cc(C#N)ccc1-c1ncc([C@H](F)CN)cn1 [compound 1296, 4-[5-[(1S)-2-amino-1-fluoroethyl]pyrimidin-2-yl]-3-(2-methyl-5-pyridin-2-ylpyrazol-3-yl)oxybenzonitrile]
0.01 to 1	Cc1cc(Oc2cc(C#N)ccc2-c2ccc3c(n2)CNC3)cc(N2CCOCC2)n1 [compound 1297, 4-(6,7-dihydro-5H-pyrrolo[3,4-b]pyridin-2-yl)-3-(2-methyl-6-morpholin-4-ylpyridin-4-yl)oxybenzonitrile]
0.01 to 1	Cc1cc(Oc2cc(C#N)ccc2-c2ncc(CN)cn2)nc(N2CCOCC2)n1 [compound 1298, 4-[5-(aminomethyl)pyrimidin-2-yl]-3-(6-methyl-2-morpholin-4-ylpyrimidin-4-yl)oxybenzonitrile]
< 0.01	Cc1cc(Oc2cc(C#N)ccc2-c2ccc([C@@H](F)CN)cn2)cc(N2CCOCC2)n1 [compound 1299, 4-[5-[(1R)-2-amino-1-fluoroethyl]pyridin-2-yl]-3-(2-methyl-6-morpholin-4-ylpyridin-4-yl)oxybenzonitrile]
< 0.01	Cc1cc(Oc2cc(C#N)ccc2-c2ccc([C@H](F)CN)cn2)cc(N2CCOCC2)n1 [compound 1300, 4-[5-[(1S)-2-amino-1-fluoroethyl]pyridin-2-yl]-3-(2-methyl-6-morpholin-4-ylpyridin-4-yl)oxybenzonitrile]
< 0.01	Cn1nc(-c2ccccn2)cc1Oc1cc(C#N)ccc1-c1ccc([C@@H](F)CN)cn1 [compound 1301, 4-[5-[(1R)-2-amino-1-fluoroethyl]pyridin-2-yl]-3-(2-methyl-5-pyridin-2-ylpyrazol-3-yl)oxybenzonitrile]
< 0.01	Cn1nc(-c2ccccn2)cc1Oc1cc(C#N)ccc1-c1ccc([C@H](F)CN)cn1 [compound 1302, 4-[5-[(1S)-2-amino-1-fluoroethyl]pyridin-2-yl]-3-(2-methyl-5-pyridin-2-ylpyrazol-3-yl)oxybenzonitrile]
